According to patent US20220304946A1 (priority 2021, published 2022):
Entries after “also recorded” stand apart in the source; their conditions may differ. Like-named read-outs stand apart in the source and are kept apart here. Where a SMILES comes first, the peptide text is derived from it. Bridges are numbered along the chain shown (N, C = ends). [ ]: non-standard residue; d: D form. The star is where a group is joined. Ileψ(thiazoline)Cys = CC[C@H](C)[C@H](N)C1=N[C@H](C(=O)*)CS1; dOrn = NCCC[C@@H](N)C(=O)O

Key:
[1] = target: prolyl endopeptidase (PEP) (UniProt P27028); experiment: PEP inhibitory activity assay (modified Yoshimoto et al. method, Z-Gly-Pro-pNA substrate); format: biochemical
Protocol: PEP inhibitory activity was evaluated with minor modification of the Yoshimoto et al. method. Briefly, 150 μL of sodium phosphate buffer (50 mM, pH 7.0), and 10 μL of the test compound (0.5 mM in DMSO) were added into a 96-well plate, followed by adding 20 μL solution containing 0.02 units of PEP enzyme. In the Blank reaction, 20 μL of DMSO was added instead of the test compound, while bacitracin (0.5 mM) was used as the positive control. The incubation of the reaction mixture was carried out for 15 min at 30° C. after which a pre-read was taken at 410 nm. Next, 0.4 mM solution of Z-Gly-Pro-pNA was formed in aqueous 1,4-dioxane (40%), followed by taking the optical density (O.D.) of the reaction mixture at a wavelength of 410 nm for 40 min using a 96-well plate reader (SpectraMax-384, Molecular Devices, CA, USA).
Each reaction was repeated thrice and the differences in the results of each experiment were collectively expressed as the standard error of the mean (SEM).
% Inhibition=100−(O.D. test compound/O.D. Control)×100

[2] = target: prolyl endopeptidase (PEP) (UniProt P27028); experiment: Kinetic assay of PEP inhibition (Lineweaver-Burk and Dixon plots); format: biochemical
Protocol: That in which way it inhibits the PEP catalytic activity i.e. competitive inhibition, non-competitive inhibition, mixed or uncompetitive inhibition. […] The reaction was started post adding four various concentrations of Z-Gly-Pro-pNA (0.2 mM to 0.5 mM). The PEP enzymatic catalysis was assessed at 410 nm via a 96-well plate reader.
Next, using the obtained O.D. results, the Lineweaver-Burk and Dixon plot was generated.
Grafit version-7 (Erithacus Software Limited, UK) was employed for the Kinetic studies.

Chain of prolyl endopeptidase (PEP) (P27028 whole entry): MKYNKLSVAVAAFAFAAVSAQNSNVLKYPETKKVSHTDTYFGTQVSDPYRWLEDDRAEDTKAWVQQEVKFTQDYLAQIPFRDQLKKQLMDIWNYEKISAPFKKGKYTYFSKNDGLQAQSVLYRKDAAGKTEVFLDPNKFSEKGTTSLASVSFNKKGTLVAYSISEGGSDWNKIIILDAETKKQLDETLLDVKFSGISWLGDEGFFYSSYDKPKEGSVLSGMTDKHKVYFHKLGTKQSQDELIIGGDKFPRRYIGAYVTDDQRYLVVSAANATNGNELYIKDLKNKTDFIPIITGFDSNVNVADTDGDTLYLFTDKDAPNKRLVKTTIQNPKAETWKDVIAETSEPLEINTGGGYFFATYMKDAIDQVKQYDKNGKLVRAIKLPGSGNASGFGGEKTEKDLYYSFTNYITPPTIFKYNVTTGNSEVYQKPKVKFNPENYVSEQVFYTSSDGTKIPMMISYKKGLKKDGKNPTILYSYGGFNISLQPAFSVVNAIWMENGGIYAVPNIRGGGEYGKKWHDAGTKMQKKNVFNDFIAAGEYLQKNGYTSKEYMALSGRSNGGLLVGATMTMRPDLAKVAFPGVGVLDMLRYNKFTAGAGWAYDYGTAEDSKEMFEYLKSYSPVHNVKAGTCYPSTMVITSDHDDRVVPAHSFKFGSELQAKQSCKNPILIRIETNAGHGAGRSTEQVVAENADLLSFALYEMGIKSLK

Row | Compound | IC50 ([1]; mean ± SEM, repeated thrice; 30° C., pH 7.0; read-out: PEP inhibitory activity IC50) [µM] | type of PEP inhibition ([2]; Lineweaver-Burk / Dixon plot) | Ki ([2]; read-out: Ki value, Lineweaver-Burk plot, reconfirmed by Dixon plot) [µM] | IC50 ([1]; read-out: PEP inhibitory activity IC50; mean ± SEM, repeated thrice; 30° C., pH 7.0) [µM]
1 | CC[C@H](C)[C@H](N)C1=N[C@H](C(=O)N[C@@H](CC(C)C)C(=O)N[C@H](CCC(=O)O)C(=O)N[C@H](C(=O)N[C@H]2CCCCNC(=O)[C@H](CC(N)=O)NC(=O)[C@@H](CC(=O)O)NC(=O)[C@H](Cc3cnc[nH]3)NC(=O)[C@@H](Cc3ccccc3)NC(=O)[C@H]([C@@H](C)CC)NC(=O)[C@@H](CCCN)NC2=O)[C@@H](C)CC)CS1 [bacitracin, reference compound] ({Ileψ(thiazoline)Cys}-L[dE]IK[dOrn]I[dF]H[dD]N; lactam 4-C) | 114 ± 1.2 | – | – | –
2 | C/C=C/c1ccc(OC)cc1 [trans-anethole, (E)-1-Methoxy-4-(1-propenyl) benzene] | – | competitively inhibited; also recorded: competitive | 5.656 ± 0.03 | 5.7 ± 1.2
